# Target: T1, NLRP3 (Homo sapiens, UniProt Q96P20)
# T1 construct: host or cells: PMA-differentiated THP-1 cells
# Assay: Measurement of IL-1β production in PMA-differentiated THP-1 cells (NLRP3 hIL1B EC50)
# Assay type: cell-based
# Details: not given
# Method: Measurement of IL-1β Production in PMA-Differentiated THP-1 Cells
# THP-1 cells were purchased from the American Type Culture Collection and sub-cultured according to instructions from the supplier. Prior to experiments, cells were cultured in RPMI 1640 containing 10% heat inactivated FBS, penicillin (100 units/ml) and streptomycin (100 μg/ml), and maintained in log phase prior to experimental setup. Prior to the experiment THP-1 were treated with PMA (Phorbol 12-myristate 13-acetate) (10 μg/ml) for 24 hours. The day of the experiment the media was removed and attaching cells were treated with trypsin for 2 minutes, cells were then collected, washed with PBS (phosphate buffer saline), spin down, resuspended in 2% heat inactivated FBS with RPMI at a concentration of 1×10^6 cells/ml, and 100 μl was plated in a 96 well plate. Compounds were dissolved in dimethyl sulfoxide (DMSO) and added to the culture medium to achieve desired concentration (e.g. 100, 30, 10, 3, 1, 0.3 or 0.1 μM). Cells were incubated with compounds for 4 hours. Cell free supernatant was collected and the production of IL-1β was evaluated by ELISA. A vehicle only control was run concurrently with each experiment. Final DMSO concentration was 1%.
# Measurement of IL-1β Production in PMA-Differentiated THP-1 Cells (Alternative Procedure)
# THP-1 cells were purchased from the American Type Culture Collection and sub-cultured according to instructions from the supplier. Prior to experiments, cells were cultured in RPMI 1640 containing 10% heat inactivated FBS, penicillin (100 units/ml), streptomycin (100 μg/ml), HEPES (10 mM) and sodium pyruvate (1 mM) and maintained in log phase prior to experimental setup. Prior to the experiment, THP-1 cells were treated with PMA (Phorbol 12-myristate 13-acetate) (20 μg/ml) overnight. The day of the experiment, the media was removed and attached cells were treated with trypsin for 2 minutes, cells were then collected, washed with PBS (phosphate buffer saline), pelleted by centrifugation and resuspended in 2% heat inactivated FBS with RPMI at a concentration of 50,000 cells/well in a 384 well plate. Cell free supernatant was collected and the production of IL-1β was evaluated by ELISA. Compounds were dissolved in dimethyl sulfoxide (DMSO) and added to the culture medium to achieve desired concentration (e.g. 100, 30, 10, 3, 1, 0.3 or 0.1 μM). Cells were incubated with compounds for 2 hours. A vehicle only control was run concurrently with each experiment. Final DMSO concentration was 1%.
# Measurement of IL-1β Production—hTRF Protocol (Second Alternative Procedure)
# Serial dilutions of compounds in DMSO were added to low volume 384 well plates at 100 nl/well using an ECHO 550 acoustic dispenser (Labcyte) to achieve final starting concentration of 10 μM in assay.
# THP-1 cells in RPMI (Gibco, 11875) media with 10% FBS at a density of 1×10^6 cell/ml in a T175 flask were treated with a final concentration of phorbol 12-myristate 13-acetate (PMA) (Sigma, P1585) of 50 ng/ml overnight at 37° C. at 5% CO2 for differentiation. Cells were harvested the next day after rinsing well wth dPBS using 0.5% trypsin. A cell solution was prepared of 1×10^6 cells/ml for 50,000 cells in 50 μl/well in RPMI media with 2% FBS. Cells were plated using a multichannel pipette onto the compound dilutions in Greiner, 384 well, black clear bottom tissue culture treated plates (781090). The plates were incubated in 37° C. incubator at 5% CO2 for 2 hours.
# After the 2 hour incubation, the cell plates were spun in the centrifuge for 5 minutes at 1200 rpm. Using the Felix (CyBio), 8 μl of the supernatant was transferred to 384 well, low volume, white proxy plates. (Perkin Elmer, 6008230). A human IL1beta hTRF kit was used to analyze the supernatant (CISBIO, 62HIL1BPEG). The kit instructions were followed for preparing the IL1Beta standard curve and then the antibodies from the kit were diluted 1:40 rather than 1:20 as kit instructed. […]
# T1 sequence (Q96P20 whole entry): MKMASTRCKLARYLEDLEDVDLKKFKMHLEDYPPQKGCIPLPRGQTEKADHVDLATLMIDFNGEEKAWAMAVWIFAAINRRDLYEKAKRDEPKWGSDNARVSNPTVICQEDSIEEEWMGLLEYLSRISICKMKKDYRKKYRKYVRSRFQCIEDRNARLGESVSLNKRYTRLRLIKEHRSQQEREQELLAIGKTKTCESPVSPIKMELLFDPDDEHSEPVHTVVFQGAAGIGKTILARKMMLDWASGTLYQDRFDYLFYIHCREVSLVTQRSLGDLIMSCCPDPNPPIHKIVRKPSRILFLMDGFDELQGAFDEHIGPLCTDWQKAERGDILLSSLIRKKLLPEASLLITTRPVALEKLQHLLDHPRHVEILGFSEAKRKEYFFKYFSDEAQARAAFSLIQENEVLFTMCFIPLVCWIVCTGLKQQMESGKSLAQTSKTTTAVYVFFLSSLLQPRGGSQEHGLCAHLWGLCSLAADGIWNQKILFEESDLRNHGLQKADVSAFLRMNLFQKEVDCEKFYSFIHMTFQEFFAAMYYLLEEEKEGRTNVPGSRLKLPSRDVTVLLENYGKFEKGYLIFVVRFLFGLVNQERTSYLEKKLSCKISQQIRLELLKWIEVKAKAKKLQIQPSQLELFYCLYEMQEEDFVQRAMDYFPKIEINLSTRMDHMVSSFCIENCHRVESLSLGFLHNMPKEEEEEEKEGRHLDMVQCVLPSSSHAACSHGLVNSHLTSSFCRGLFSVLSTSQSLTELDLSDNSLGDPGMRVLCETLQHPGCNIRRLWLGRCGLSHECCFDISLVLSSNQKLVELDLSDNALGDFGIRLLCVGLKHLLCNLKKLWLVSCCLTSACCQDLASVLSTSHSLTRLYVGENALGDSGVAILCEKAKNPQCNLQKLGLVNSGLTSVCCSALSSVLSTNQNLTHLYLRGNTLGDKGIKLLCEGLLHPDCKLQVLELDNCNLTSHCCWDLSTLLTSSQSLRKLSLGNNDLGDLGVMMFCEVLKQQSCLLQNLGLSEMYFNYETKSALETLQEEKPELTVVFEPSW
row,Compound,EC50 [nM]
1,Nc1nc(NC23CC(CO)(C2)C3)c2ccc(-c3ccn[nH]3)cc2n1 [Example 7],200
2,"Nc1nc(NC23CC4CC(CC(O)(C4)C2)C3)c2ccc(-c3cc[nH]n3)cc2n1 [Example 11, (1s,3r,5R,7S)-3-((2-Amino-7-(1H-pyrazol-3-yl)quinazolin-4-yl)amino)adamantan-1-ol]",2110
3,Nc1nc(N2C3CCC2COC3)c2ccc(-c3cc[nH]n3)cc2n1 [Example 12],640
4,Nc1nc(NC23CC(C2)C3)c2ccc(-c3cc[nH]n3)cc2n1 [Example 13],200
5,"Nc1cc(N[C@@H]2C[C@H]3C[C@@H](O)C[C@H]3C2)c2ccc(-c3ccn[nH]3)cc2n1 [Example 14, (2r,3aR,5r,6aS)-5-((2-amino-7-(1H-pyrazol-5-yl)quinolin-4-yl)amino)octahydropentalen-2-ol]",640
6,"Nc1cc(NC23CC(CO)(C2)C3)c2ccc(-c3ccn[nH]3)cc2n1 [Example 16, (3-((2-amino-7-(1H-pyrazol-5-yl)quinolin-4-yl)amino)bicyclo[1.1.1]pentan-1-yl)methanol]",130
7,Nc1cc(NC23CC(C2)C3)c2ccc(-c3ccn[nH]3)cc2n1 [Example 19],320
8,Nc1cc(N[C@H]2[C@@H]3COC[C@@H]32)c2ccc(-c3ccn[nH]3)cc2n1 [Example 20],110
9,Nc1cc(NC2CC3(CC(O)C3)C2)c2ccc(-c3ccn[nH]3)cc2n1 (stereo not drawn) [Example 21],880
10,Nc1cc(N2C3CCC2COC3)c2ccc(-c3ccn[nH]3)cc2n1 [Example 22],2000
11,Nc1cc(N2CC3CCC(C2)O3)c2ccc(-c3ccn[nH]3)cc2n1 [Example 23],740
12,"Nc1cc(N2C3CCC2COC3)c2ncc(-c3cc[nH]n3)cc2n1 [Example 24, 4-(3-oxa-8-azabicyclo[3.2.1]octan-8-yl)-7-(1H-pyrazol-3-yl)-1,5-naphthyridin-2-amine]",890
13,"C=CC12CCC(CNc3cc(N)nc4cc(-c5ccn[nH]5)ccc34)(CC1)CO2 [Example 25, 7-(1H-pyrazol-3-yl)-N4-((1-vinyl-2-oxabicyclo[2.2.2]octan-4-yl)methyl)quinoline-2,4-diamine]",2000
14,"Nc1cc(NC2COCCC23OCCO3)c2ccc(-c3cc[nH]n3)cc2n1 (stereo not drawn) [Example 33, 7-(1H-pyrazol-3-yl)-N4-(1,4,8-trioxaspiro[4.5]decan-6-yl)quinoline-2,4-diamine]",17400
15,"Nc1nc(NCC23CC(CO)(C2)C3)c2ccc(-c3ccn[nH]3)cc2n1 [Example 34, (3-(((2-amino-7-(1H-pyrazol-5-yl)quinazolin-4-yl)amino)methyl)bicyclo[1.1.1]pentan-1-yl)methanol]",3960
16,Nc1nc(NC2CC23CC3)c2ccc(-c3cc[nH]n3)cc2n1 (stereo not drawn) [Example 35],190
17,Nc1nc(NC2CC3(CC3)C2)c2ccc(-c3cc[nH]n3)cc2n1 [Example 37],300
18,CCN1CCC2(CCN(c3nc(N)nc4cc(-c5cc[nH]n5)ccc34)C2)C1 (stereo not drawn) [Example 38],2580
19,Nc1nc(NCC2C[C@H]3CC[C@@H]2CC3)c2ccc(-c3cc[nH]n3)cc2n1 (stereo partly drawn) [Example 39],860
20,"Nc1cc(OCC23CCC(CC2)OC3)c2ccc(-c3cc[nH]n3)cc2n1 [Example 47, 4-((2-oxabicyclo[2.2.2]octan-4-yl)methoxy)-7-(1H-pyrazol-3-yl)quinolin-2-amine]",320
21,"Nc1cc(NCC23CCC(CC2)OC3)c2ccc(-c3cc[nH]n3)cc2n1 [Example 48, N4-((2-oxabicyclo[2.2.2]octan-4-yl)methyl)-7-(1H-pyrazol-3-yl)quinoline-2,4-diamine]",570
22,"Nc1cc(NCC23CCC(CC2)OC3)c2ccc(-c3ccsc3)cc2n1 [Example 49, N4-((2-oxabicyclo[2.2.2]octan-4-yl)methyl)-7-(thiophen-3-yl)quinoline-2,4-diamine]",540
23,"COC(=O)C12CCC(CNc3cc(N)nc4cc(-c5cc[nH]n5)ccc34)(CC1)CC2 [Example 50, methyl 4-(((2-amino-7-(1H-pyrazol-3-yl)quinolin-4-yl)amino)methyl)bicyclo[2.2.2]octane-1-carboxylate]",1730
24,"Nc1cc(NCC23CCC(CO)(CC2)OC3)c2ccc(-c3ccsc3)cc2n1 [Example 51, (4-(((2-amino-7-(thiophen-3-yl)quinolin-4-yl)amino)methyl)-2-oxabicyclo[2.2.2]octan-1-yl)methanol]",1860
25,"Nc1cc(NCC23CC(CO)(C2)C3)c2ccc(-c3ccn[nH]3)cc2n1 [Example 52, (3-(((2-amino-7-(1H-pyrazol-5-yl)quinolin-4-yl)amino)methyl)bicyclo[1.1.1]pentan-1-yl)methanol]",980

# Target: T2, human TLR7 (Homo sapiens, UniProt Q9NYK1)
# T2 construct: host or cells: human HEK-Blue cells co-expressing TLR7 and an NF-kB/AP1-inducible SEAP reporter
# T2 sequence (Q9NYK1 27-1049): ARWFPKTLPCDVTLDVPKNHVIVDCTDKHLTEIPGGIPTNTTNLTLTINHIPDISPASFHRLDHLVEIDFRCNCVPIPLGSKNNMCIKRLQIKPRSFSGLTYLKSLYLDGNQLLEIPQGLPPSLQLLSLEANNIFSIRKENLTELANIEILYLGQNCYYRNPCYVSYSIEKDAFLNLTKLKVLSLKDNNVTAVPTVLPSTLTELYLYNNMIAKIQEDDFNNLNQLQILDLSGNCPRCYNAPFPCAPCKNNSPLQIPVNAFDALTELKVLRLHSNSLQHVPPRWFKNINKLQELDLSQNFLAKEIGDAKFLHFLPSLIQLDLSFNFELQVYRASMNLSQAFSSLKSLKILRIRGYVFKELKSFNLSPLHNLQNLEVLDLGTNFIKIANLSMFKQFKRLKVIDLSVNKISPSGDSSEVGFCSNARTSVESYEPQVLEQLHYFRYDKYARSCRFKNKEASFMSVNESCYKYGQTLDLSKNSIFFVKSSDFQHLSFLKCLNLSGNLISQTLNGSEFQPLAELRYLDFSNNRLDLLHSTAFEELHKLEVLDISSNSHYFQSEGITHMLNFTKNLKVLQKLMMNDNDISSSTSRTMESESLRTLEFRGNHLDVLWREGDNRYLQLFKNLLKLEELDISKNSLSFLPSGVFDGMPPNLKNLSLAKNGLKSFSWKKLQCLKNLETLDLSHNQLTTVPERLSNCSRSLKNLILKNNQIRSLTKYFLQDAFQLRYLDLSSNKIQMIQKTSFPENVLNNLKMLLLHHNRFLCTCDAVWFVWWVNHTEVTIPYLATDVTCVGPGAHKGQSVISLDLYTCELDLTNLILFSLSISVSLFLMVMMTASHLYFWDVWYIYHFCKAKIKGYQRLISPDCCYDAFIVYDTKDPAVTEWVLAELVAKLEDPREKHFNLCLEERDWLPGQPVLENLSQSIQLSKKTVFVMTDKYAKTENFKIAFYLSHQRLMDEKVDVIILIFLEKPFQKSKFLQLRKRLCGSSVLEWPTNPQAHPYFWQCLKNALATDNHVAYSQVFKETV
# Assay: In vitro human TLR7 binding reporter assay (HEK-Blue cells, NF-kB/AP1-inducible SEAP reporter)
# Assay type: cell-based
# Details: HEK-Blue cells expressing TLR7, SEAP reporter; read-out: TLR7 agonist EC50
# Method: In Vitro Human TLR7 and TLR8 Binding Reporter Assays
# Logarithmically-growing human HEK-Blue cells co-expressing a TLR7 or TLR8 gene and a NF-kB/AP1-inducible SEAP (secreted embryonic alkaline phosphatase; Invivogen, San Diego, CA) reporter gene are added to individual wells of a 384-well plate (15,000 cells per 20 μL per well) and maintained for 24 h at 37° C., 5% CO2. Test compounds or DMSO are distributed to separate wells the next day using acoustic liquid handling technology (100 nL per well) and cells are subsequently incubated for 18 h at 37° C., 5% CO2. Cellular SEAP production is measured using an Envision plate reader instrument thirty minutes after adding freshly-made Quanti-Blue reagent (prepared by following manufacturer instructions; Invivogen, San Diego, CA) to the HEK-Blue TLR Nf-kB-SEAP cell reactions. All EC50 values (half-maximal effective concentration) are determined using proprietary data analysis software.
row,Compound,EC50 [nM]
1,"Nc1cc(NC23CC(CO)(C2)C3)c2ccc(-c3ccn[nH]3)cc2n1 [Example 16, (3-((2-amino-7-(1H-pyrazol-5-yl)quinolin-4-yl)amino)bicyclo[1.1.1]pentan-1-yl)methanol]",< 50000
2,"C=CC12CCC(CNc3cc(N)nc4cc(-c5ccn[nH]5)ccc34)(CC1)CO2 [Example 25, 7-(1H-pyrazol-3-yl)-N4-((1-vinyl-2-oxabicyclo[2.2.2]octan-4-yl)methyl)quinoline-2,4-diamine]",< 50000
